# Laboratory results published in US8022219B2, “2-hydroxymethy1-3,4,5-trihydroxy-1-(4-pentyloxybenzyl) piperidine as glucosylceramide synthase (Gcs) inhibitor” (Actelion Pharmaceuticals Ltd., priority 2003, dated 2011).
# Experiments:
# [1] = biological target: T1, non-lysosomal-β-glucocerebrosidase (Homo sapiens, UniProt Q9HCG7); experiment: Inhibition of non-lysosomal-β-glucocerebrosidase; type: biochemical; conditions: whole cell extracts of MCF7 as enzyme source; 5 mM 4-MU β-glucoside; 0.2M citrate/phosphate pH 5.8
# T1 construct: whole cell extracts of MCF7 (a human breast carcinoma cell line) was used as the source of the enzyme; endogenous in cells; host or cells: MCF7 whole cell extract
# T1 sequence (Q9HCG7 1-927): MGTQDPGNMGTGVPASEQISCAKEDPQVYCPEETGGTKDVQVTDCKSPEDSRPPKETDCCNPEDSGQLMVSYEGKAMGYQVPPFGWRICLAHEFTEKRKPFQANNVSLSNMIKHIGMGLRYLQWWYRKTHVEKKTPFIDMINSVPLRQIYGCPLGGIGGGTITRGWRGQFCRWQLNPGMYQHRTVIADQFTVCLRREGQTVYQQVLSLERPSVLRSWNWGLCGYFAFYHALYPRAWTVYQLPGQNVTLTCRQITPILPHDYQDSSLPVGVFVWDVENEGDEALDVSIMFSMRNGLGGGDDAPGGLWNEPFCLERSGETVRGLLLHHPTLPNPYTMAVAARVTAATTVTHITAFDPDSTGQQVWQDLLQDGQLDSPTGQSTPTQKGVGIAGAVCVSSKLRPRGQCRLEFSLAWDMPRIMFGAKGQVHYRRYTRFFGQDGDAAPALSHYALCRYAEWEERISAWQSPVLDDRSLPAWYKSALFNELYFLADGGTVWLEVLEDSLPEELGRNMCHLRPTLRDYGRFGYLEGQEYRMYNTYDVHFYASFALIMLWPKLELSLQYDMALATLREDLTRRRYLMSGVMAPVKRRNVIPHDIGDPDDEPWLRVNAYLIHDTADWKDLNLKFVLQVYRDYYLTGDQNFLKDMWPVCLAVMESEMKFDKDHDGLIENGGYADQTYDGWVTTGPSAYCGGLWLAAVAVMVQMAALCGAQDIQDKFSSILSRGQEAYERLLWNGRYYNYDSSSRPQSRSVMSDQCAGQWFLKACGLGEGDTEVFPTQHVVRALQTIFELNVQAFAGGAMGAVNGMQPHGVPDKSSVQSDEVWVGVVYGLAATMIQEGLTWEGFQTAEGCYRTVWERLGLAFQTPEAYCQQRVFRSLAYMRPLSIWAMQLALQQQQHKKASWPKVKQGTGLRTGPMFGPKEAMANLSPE
# Experimental: Inhibition of Non-Lysosomal-β-Glucocerebrosidase
# The assay for inhibition of non-lysosomal-β-glucocerebrosidase was essentially carried out as described in Overkleeft, H. S. et al., J. Biol. Chem., 1998, 273, 26522-26527, with the following differences: whole cell extracts of MCF7 (a human breast carcinoma cell line) was used as the source of the enzyme instead of splenic membrane suspensions; 5 mM instead of 3 mM, 4-MU β-glucoside was used as substrate and 0.2M citrate/phosphate (pH 5.8) was used instead of McIlvaine buffer.
# [2] = biological target: T2, human recombinant GCS expressed in insect cells (Homo sapiens, UniProt Q16739); experiment: Inhibition of GCS; type: biochemical; conditions: read-out: Inhibition of glucosylceramide synthase (IC50 μM)
# T2 construct: made in house; host or cells: insect cells
# T2 sequence (Q16739 1-394): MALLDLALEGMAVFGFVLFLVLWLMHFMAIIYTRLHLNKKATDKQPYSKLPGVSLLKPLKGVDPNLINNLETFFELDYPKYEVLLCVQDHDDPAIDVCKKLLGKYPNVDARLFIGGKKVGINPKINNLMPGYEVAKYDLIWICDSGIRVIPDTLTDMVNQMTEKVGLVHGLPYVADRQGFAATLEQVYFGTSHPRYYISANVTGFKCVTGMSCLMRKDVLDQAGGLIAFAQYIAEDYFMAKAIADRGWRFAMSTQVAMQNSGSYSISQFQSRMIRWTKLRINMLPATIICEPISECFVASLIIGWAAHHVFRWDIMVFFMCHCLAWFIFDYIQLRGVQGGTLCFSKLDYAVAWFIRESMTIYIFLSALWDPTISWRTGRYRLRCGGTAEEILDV
# Experimental: The assay for inhibition of GCS was performed essentially as described in Platt et al., J. Biol. Chem., 1994, 269, 27108, the enzyme source being human recombinant GCS expressed in insect cells.
compound,measurement,setting,value
"CCCCCOc1ccc(CN2C[C@H](O)[C@@H](O)[C@@H](O)[C@@H]2CO)cc1 [Example 1, 3,4,5-Piperidinetriol, 2-(hydroxymethyl)-1-[(4-(pentyloxy)phenyl)methyl]-, (2S,3S,4R,5S)]",IC50,[1],2.5 µM
same,IC50,[2],4.8 µM
